Measurements reported in patent US20240116850A1, “COMPOSITIONS AND METHODS RELATED TO BICYCLO[2.2.1] HEPTANAMINE-CONTAINING COMPOUNDS” (The Broad Institute, Inc., priority 2020, published 2024).
Entries after “also recorded” stand apart in the source; their conditions may differ.

Key:
[1] = Dynamic Vapor Sorption (DVS) hygroscopicity; type: physicochemical; conditions: for DVS (matrix of results from solid form characterization): summary grade Good/Moderate/Poor
Description: Dynamic Vapor Sorption (DVS) was measured via a SMS (Surface Measurement Systems) DVS Intrinsic. The relative humidity at 25° C. were calibrated against the deliquescence point of LiCl, Mg(NO3)2 and KCl.

[2] = Physical and chemical stability on storage (LC-MS and XRPD); type: physicochemical; conditions: for decomposition or solid form change in stability assay / Stability (matrix of results from solid form characterization): 1 week stability assay; for Solid Form after storage (XRPD) / Stability: 25/60% RH; 40 C./75% RH; 1 week / Form change?: 1 week; for Stability: 25/60% RH; 40 C./75% RH; 1 week / Form change?: BRD4780 salt solid form, 25/60% RH and 40 C./75% RH; for Stability: 25/60% RH; 40 C./75% RH; 1 week: impurities estimated by LCMS by observation of the TIC; for Form change?: solid form change (XRPD); for Stability (matrix of results from solid form characterization): summary grade Good/Moderate/Poor
Description: To compare the physical/chemical stability of the salt candidates, approximate 10 mg of each solid sample was added to a 5-mL glass vial covered with Parafilm® with several pin-holes on it, and then stored under 25° C./60% RH and 40° C./75% RH. After one week storage, solids were taken out for LC-MS and XRPD test to evaluate physical and chemical stability.

[3] = TGA and DSC thermal characterization of salts; type: physicochemical; conditions: summary grade Good/Moderate/Poor
Description: TGA data were collected using a TA Discovery5500/Q5000 TGA from TA Instruments. DSC was performed using a TA Discovery2500/Q2000 DSC from TA Instruments.

[4] = Equilibrium solubility in water and bio-relevant media (SGF, FaSSIF, FeSSIF); conditions: for solubility: thermodynamic from solid; for Solubility (matrix of results from solid form characterization): summary grade Good/Moderate/Poor
[5] = physchem; conditions: thermodynamic from solid
[6] = Physical and chemical stability on storage (LC-MS and XRPD); type: physicochemical
[7] = water, H2O solubility (mM; salt)
[8] = Fasted State Simulated Intestinal Fluid (pH 6.5)
[9] = Fed State Simulated Intestinal Fluid (pH 5.0)
[10] = Simulated gastric fluid (pH 1.8)
[11] = water, HCl salt tested at 100 mg/mL, other salts at 50 mg/mL

Row | SMILES | DVS (% H2O uptake at 25 C./80% RH) ([1]; 80% RH) [%] | DVS (% H2O uptake at 25 C./95% RH) [1] [%] | hygroscopicity classification ([1]; DVS) | DVS (matrix of results from solid form characterization) [1] | decomposition or solid form change in stability assay [2] | Solid Form after storage (XRPD) ([2]; 25° C./60% RH) | Solid Form after storage (XRPD) ([2]; 40° C./75% RH) | Stability: 25/60% RH; 40 C./75% RH; 1 week [2] | Form change? [2] | Stability (matrix of results from solid form characterization) [2] | TGA/DSC (matrix of results from solid form characterization) [3] | pH ([4]; final solution in FaSSIF) | pH ([4]; final solution in FeSSIF) | pH ([4]; final solution in H2O) | pH ([4]; final solution in SGF) | Solubility (matrix of results from solid form characterization) [4] | FaSSIF solubility [4, 8] [mg/mL] | FeSSIF solubility [4, 9] [mg/mL] | SGF solubility [4, 10] [mg/mL] | H2O solubility (mM; salt) ([4]; water) [mM] | other results
1 | CC(C)[C@@H]1[C@H]2CC[C@H](C2)[C@H]1N (racemic) [Phosphate Type B] | 1.18 | 5.8 | hygroscopic | Poor | form change observed | Phosphate Type A + B | Phosphate Type A + B | No significant impurities | Phosphate A | Poor | Poor | 5.1 | 4.8 | 4.4 | 3.0 | Good | – | – | – | – | desorption of absorbed H2O ([1]; DVS): did not fully desorb; solubility ([4]; fasted state simulated intestinal fluid (FaSSIF), pH 6.5, fassif, FaSSIF solubility, Fasted State Simulated Intestinal Fluid (pH 6.5)): > 29 mg/mL; solubility ([4]; fed state simulated intestinal fluid (FeSSIF), pH 5, fessif, FeSSIF solubility, Fed State Simulated Intestinal Fluid (pH 5.0)): > 27 mg/mL; solubility ([4]; simulated gastric fluid (SGF), pH 1.8, simulated gastric fluid, SGF solubility, Simulated gastric fluid (pH 1.8)): > 32 mg/mL; solubility [4, 7]: > 163 mM; solubility ([4]; water, H2O solubility (mg/mL; salt), HCl salt tested at 100 mg/mL, other salts at 50 mg/mL): > 33 mg/mL
2 | CC(C)[C@@H]1[C@H]2CC[C@H](C2)[C@H]1N.O=C(O)CCC(=O)O [Succinate Type A] | 0.08 | 0.67 | not hygroscopic | Good | new peaks observed | Succinate Type A + peaks | Succinate Type A | No significant impurities | New Peaks | Moderate | Good | 4.5 | 4.6 | 4.5 | 4.4 | – | – | – | – | – | Solid Form after storage (XRPD) ([2]; 25° C./60% RH, listed as succinate Type A): new peaks were observed; solubility ([5]; pH 1.8, simulated gastric fluid, SGF solubility): > 28 mg/mL; solubility ([5]; pH 6.5, fassif, FaSSIF solubility): > 28 mg/mL; solubility [5, 7]: > 103 mM; solubility ([5]; water, H2O solubility (mg/mL; salt)): > 28 mg/mL
3 | CC(C)C1C2CCC(C2)C1N.Cl (racemic) [HCl salt Type A, rac-3-exo-isopropylbicyclo[2.2.1]heptan-2-endo-amine hydrochloride, reference compound] | 0.55 | 3.3 | slightly hygroscopic | Moderate | did not display decomposition or solid form change | HCl salt Type A | HCl salt Type A | No significant impurities | No change | Good | Good | 6.0 | 4.8 | 4.5 | 1.8 | Good | >71 | >75 | >77 | >405.84 | H2O absorption ([1]; 80% RH): 0.55 wt %; H2O absorption ([1]; 90% RH): 3.3 wt %; new peak on LC-MS chromatogram after storage ([6]; 60° C. for 24 h): a new peak was observed; Solid Form after storage (XRPD) ([6]; 60° C., 24 h): HCl salt Type A; H2O solubility (mg/mL; salt) [4, 11]: >77 mg/mL
4 | CC(C)[C@@H]1[C@H]2CC[C@H](C2)[C@H]1N [L-malate Type C] | 0.18 | 0.30 | not hygroscopic | Good | form change observed | L-malate Type C | partly converted to L-malate Type B; also recorded: L-malate Type B + C | No significant impurities | Type B observed | Poor | Poor | 6.4 | 5.2 | 7.1 | 5.3 | Good | >30 | >32 | >33 | >136.17 | H2O solubility (mg/mL; salt) [4, 11]: >39 mg/mL
